Each structure is given as a SMILES string.

Test [1] concerns sulfate reducing bacteria (SRB). Briefly: SRB growth and hydrogen sulfide production with MgO. It counts as cell-based.
Procedure: Total counts were obtained and represented as cells per ml. To account for the heavy right skew of the response variable, the analysis was conducted using a shifted log-transformation of the data and 90% confidence intervals were constructed using Cox's method. […] 90% confidence intervals were constructed using a parametric Bootstrap procedure based on a zero-inflated log-normal model where the parameters were estimated using maximum likelihood. The relationship between MgO dose level and the response (SRB Growth and H2S Concentration) was assessed with an F test based on a simple linear model. Data is presented as Mean±SEM. In this second in-vitro experiment, bacteria was grown with varying doses of MgO (0.5-2.0 mg/ml) in liquid media at 37° for 24 hours (n=3). Total counts were obtained and represented as cells per ml (FIG. 2A). To account for the heavy right skew of the response variable, the analysis was conducted using a shifted log-transformation of the data and 90% confidence intervals were constructed using Cox's method. Hydrogen sulfide production of SRB grown for 24 hours with varying concentrations of MgO as represented as parts per billion (ppb) (FIG. 2B). […] The relationship between MgO dose level and the response (SRB Growth and H2S Concentration) was assessed with an F test based on a simple linear model Data is presented as Mean±SEM.
Test [2] in a line: gut dysbiosis induced with lectin-containing raw red kidney beans (RRKB). It is filed as in vivo. Conditions: by inducing heat shock factor 70.
For test [3] the following is noted: burn patients, intravenous; cited from earlier work.

For `[Mg]` [magnesium (Mg), magnesium], the “protection of the intestinal barrier by suppressing SRB and blocking production of hydrogen sulfide” value in test [1] is reported as “effective in protecting the intestinal barrier”.

As to `[O]=[Mg]` [magnesium oxide], the “reversal of SRB effects (increased intestinal permeability, SRB proliferation, hydrogen sulfide production)” value in test [1] is “could be reversed”. With `NC(=O)CC[C@H](N)C(=O)O` [glutamine], in test [2], the “reversal of leaky gut and microbial translocation to the liver” value is recorded as “able to reverse these effects”. Besides, the “endotoxemia and increased intestinal permeability” value in test [3] is recorded as “reversed”.

Source of the values: patent US20250025495A1, “Diagnosis and Treatment of Metabolic Syndrome with Magnesium Compositions” (priority 2023, published 2025).
